The supplement of paper PMC4977894
± gives the standard deviation of the averaged measurements.

Legend:
[1] = system: Homo sapiens (human subject panel, olfactory perception); experiment: perceived odor familiarity rating (rating 0-100); higher = more familiar
Procedure: (§1)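 Human olfactory psychophysics. 55 healthy subjects (after excluding 6 low performers) sniffed 1 mL of each odorant diluted in paraffin oil (vials, two dilutions per molecule, 20 molecules presented twice). Each subject rated intensity, pleasantness and familiarity on a 0-100 slider, starting at 50 and required to move. Ratings were given only when the subject reported detecting a smell; per-subject ratings are averaged over subjects.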

[2] = system: Homo sapiens (human subject panel, olfactory perception); experiment: perceived odor intensity rating (rating 0-100); higher = stronger perceived smell
Procedure: as §1

[3] = system: Homo sapiens (human subject panel, olfactory perception); experiment: perceived odor pleasantness rating (rating 0-100); higher = more pleasant
Procedure: as §1

[4] = odor dilution in paraffin oil: 1/10
[5] = odor dilution in paraffin oil: 1/1,000
[6] = odor dilution in paraffin oil: 1/100,000
[7] = odor dilution in paraffin oil: 1/10,000,000

Compound | perceived odor familiarity rating [1, 4] | perceived odor familiarity rating [1, 5] | perceived odor intensity rating [2, 4] | perceived odor intensity rating [2, 5] | perceived odor pleasantness rating [3, 4] | perceived odor pleasantness rating [3, 5] | perceived odor familiarity rating [1, 6] | perceived odor intensity rating [2, 6] | perceived odor pleasantness rating [3, 6] | perceived odor familiarity rating [1, 7] | perceived odor intensity rating [2, 7] | perceived odor pleasantness rating [3, 7]
CCCCC(C)CCC(=O)O (racemic) [(±)-4-Methyloctanoic acid] | 41.7 ± 32 | 48.6 ± 30 | 72.5 ± 25 | 67.2 ± 25 | 27.4 ± 25 | 29 ± 20 | – | – | – | – | – | –
NC(Cc1ccccc1)C(=O)O (racemic) [DL-Phenylalanine (replicate)] | 48.2 ± 29 | 39.2 ± 26 | 66.3 ± 24 | 39.2 ± 29 | 44.6 ± 25 | 50.4 ± 23 | – | – | – | – | – | –
NC(Cc1ccccc1)C(=O)O (racemic) [DL-Phenylalanine] | 43.4 ± 31 | 41.9 ± 29 | 70 ± 24 | 35.2 ± 29 | 38.2 ± 26 | 51.4 ± 27 | – | – | – | – | – | –
O=C(O)C(O)C(O)C(=O)O (racemic) [DL-Tartaric acid] | 40.5 ± 25 | 26.4 ± 28 | 30.6 ± 30 | 26.4 ± 30 | 48.3 ± 20 | 52.1 ± 19 | – | – | – | – | – | –
C=C(C)C1CC=C(C)C(=O)C1 (single isomer, unassigned; (-)) [(-)-Carvone] | 81.2 ± 24 | 77.9 ± 25 | 84.3 ± 15 | 72.6 ± 20 | 78.6 ± 16 | 78.2 ± 19 | – | – | – | – | – | –
C=C1CCC2CC1C2(C)C (single isomer, unassigned; (-)) [(-)-beta-Pinene] | 62.1 ± 31 | 47.8 ± 29 | 74.2 ± 22 | 32.2 ± 31 | 50.5 ± 30 | 54.8 ± 22 | – | – | – | – | – | –
CC(C)=CCCC(C)CCO (single isomer, unassigned; (-)) [(-)-citronellol] | – | 57.9 ± 31 | – | 71.5 ± 27 | – | 53.5 ± 30 | 49.6 ± 28 | 41.6 ± 33 | 61.3 ± 22 | – | – | –
COc1cccc(OC)c1 [1,3-Dimethoxybenzene] | – | 54.1 ± 26 | – | 68.4 ± 22 | – | 49.7 ± 26 | 33.2 ± 27 | 32.6 ± 30 | 45.8 ± 28 | – | – | –
O=C(Cc1ccccc1)Cc1ccccc1 [1,3-Diphenyl-2-propanone] | – | 49.7 ± 34 | – | 78.1 ± 20 | – | 32.7 ± 29 | 48.1 ± 30 | 35.4 ± 28 | 43 ± 27 | – | – | –
SCCCCCCS [1,6-Hexanedithiol] | – | – | – | – | – | – | 51.5 ± 33 | 74.8 ± 24 | 24.9 ± 26 | 36.8 ± 29 | 33.8 ± 34 | 40.1 ± 25
CC12CCC(CC1)C(C)(C)O2 [1,8-cineole] | – | 69.7 ± 25 | – | 70.1 ± 24 | – | 62.5 ± 24 | 53.5 ± 30 | 45.5 ± 29 | 61.5 ± 25 | – | – | –
c1coc(Cn2cccc2)c1 [1-Furfurylpyrrole] | – | 40.7 ± 32 | – | 76.3 ± 22 | – | 28.7 ± 24 | 34.3 ± 25 | 30.9 ± 29 | 46.8 ± 19 | – | – | –
C=CC(O)CCCC (stereo unspecified) [1-Hepten-3-ol] | – | 41 ± 31 | – | 83.2 ± 18 | – | 24.3 ± 25 | 44.4 ± 32 | 53.7 ± 31 | 37.3 ± 26 | – | – | –
CCCCCCCCCCCCCCCCO [1-Hexadecanol] | 40.1 ± 30 | 42.6 ± 27 | 43.5 ± 31 | 35.8 ± 26 | 43 ± 24 | 35.4 ± 24 | – | – | – | – | – | –
COc1cc(C)ccc1C(C)C [1-Methyl-3-methoxy-4-isopropylbenzene] | – | 51.6 ± 30 | – | 45.5 ± 28 | – | 43.8 ± 21 | 42.9 ± 35 | 23.1 ± 25 | 47.5 ± 18 | – | – | –
C=CC(O)CCCCC (stereo unspecified) [1-Octen-3-ol] | – | 45.4 ± 32 | – | 66.5 ± 26 | – | 40.3 ± 27 | 39.4 ± 27 | 37.7 ± 30 | 42.2 ± 20 | – | – | –
C=CC(CCCCC)OC(C)=O (stereo unspecified) [1-Octen-3-yl acetate] | – | 35.2 ± 29 | – | 55.9 ± 29 | – | 34.1 ± 22 | 32.8 ± 27 | 26.4 ± 26 | 42.9 ± 24 | – | – | –
C=CCCCCCC [1-Octene] | – | 42.9 ± 28 | – | 39.7 ± 29 | – | 39.1 ± 24 | 45.6 ± 31 | 33.6 ± 30 | 48 ± 26 | – | – | –
C=CC(O)CC (stereo unspecified) [1-Penten-3-ol] | – | 43 ± 35 | – | 53 ± 32 | – | 40.7 ± 29 | 34.7 ± 24 | 31.3 ± 32 | 43.3 ± 22 | – | – | –
CCC(O)c1ccccc1 (stereo unspecified) [1-Phenyl-1-propanol] | – | 39.2 ± 31 | – | 36.6 ± 32 | – | 54 ± 20 | 25.5 ± 26 | 15.2 ± 22 | 48.9 ± 19 | – | – | –
CCCCCCCCCCCO [1-undecanol] | 51 ± 32 | 37.1 ± 30 | 74.9 ± 24 | 42.8 ± 32 | 41 ± 28 | 41.9 ± 28 | – | – | – | – | – | –
c1coc(CSCc2ccco2)c1 [2,2'-(Thiodimethylene)difuran] | – | 44.9 ± 32 | – | 77.1 ± 24 | – | 20.1 ± 23 | 52 ± 32 | 73.5 ± 22 | 26.9 ± 24 | – | – | –
Cc1nc(C)c(C)nc1C [2,3,5,6-Tetramethylpyrazine] | 41.3 ± 31 | 35.7 ± 28 | 79.1 ± 18 | 25.8 ± 25 | 28.7 ± 23 | 49.4 ± 22 | – | – | – | – | – | –
CCc1nccnc1CC [2,3-Diethylpyrazine] | – | – | – | – | – | – | 55 ± 28 | 70.7 ± 26 | 34.3 ± 24 | 44.9 ± 28 | 30.4 ± 29 | 40.3 ± 18
CC(=O)C(C)=O [2,3-butanedione] | – | 49.3 ± 34 | – | 81.7 ± 19 | – | 24.5 ± 19 | 50 ± 29 | 55.8 ± 28 | 35.9 ± 22 | – | – | –
Cc1nc(C)c(C)s1 [2,4,5-Trimethylthiazole] | – | – | – | – | – | – | 48.4 ± 31 | 67.9 ± 26 | 33.8 ± 26 | 46.4 ± 31 | 35.2 ± 31 | 44.2 ± 27
